Source: patent publication US6861390B2, “Derivatives of UK-2A” (priority 2001, dated 2005)

Key:
[1] = tested on: Erysiphe graminis (ERYSGT); assay: Powdery Mildew of Wheat, whole plant 24 Hour Protectant (T1); conditions: Blumeria graminis, in Triticum aestivum, read-out: T1 ERYSGT in vivo 1 Day Protectant, control of fungal infection
[2] = tested on: Magnaporthe grisea (Pyricularia oryzae, PYRIOR); assay: microbe, parasite or virus in culture; type: cell-based; conditions: read-out: T9 PYRIOR in vitro Growth Inhibition
Ustilago maydis (USTIMA) = assay: microbe, parasite or virus in culture; type: cell-based; conditions: Mycosarcoma maydis, read-out: T12 USTIMA in vitro Growth Inhibition
[3] = tested on: Stagonospora nodorum (Leptosphaeria nodorum, LEPTNO); assay: microbe, parasite or virus in culture; type: cell-based; conditions: Parastagonospora nodorum, read-out: T7 LEPTNO in vitro Growth Inhibition
[4] = tested on: Puccinia recondita (PUCCRT); assay: Brown Rust of Wheat, whole plant 24 Hour Protectant (T5); conditions: wheat (cultivar Yuma), sprayed at 100 ppm, inoculated after 24 hours, read-out: T5 PUCCRT in vivo 1 Day Protectant, control of fungal infection
[5] = tested on: Phytophthora infestans (PHYTIN); assay: whole plant or invertebrate; conditions: in Solanum lycopersicum, 24 h, read-out: T3 PHYTIN in vivo 1 Day Protectant, control of fungal infection
[6] = tested on: Mycosphaerella graminicola (Septoria tritici, SEPTTR); assay: microbe, parasite or virus in culture; type: cell-based; conditions: Zymoseptoria tritici, read-out: T11 SEPTTR in vitro Growth Inhibition
[7] = tested on: Rhizoctonia solani (RHIZSO); assay: microbe, parasite or virus in culture; type: cell-based; conditions: read-out: T10 RHIZSO in vitro Growth Inhibition
[8] = tested on: Septoria tritici (SEPTTR); assay: Leaf Blotch of Wheat, whole plant 24 Hour Protectant (T6); conditions: Zymoseptoria tritici; wheat (cultivar Monon), sprayed at 100 ppm, inoculated after 24 hours; read-out: T6 SEPTTR in vivo 1 Day Protectant, control of fungal infection
[9] = tested on: Phytophthora infestans (PHYTIN); assay: microbe, parasite or virus in culture; type: cell-based; conditions: in Secale cereale, read-out: T8 PHYTIN in vitro Growth Inhibition
[10] = tested on: Leptosphaeria nodorum (LEPTNO); assay: Glume Blotch of Wheat, whole plant 24 Hour Protectant (T2); conditions: Parastagonospora nodorum; wheat (cultivar Yuma), sprayed at 100 ppm, inoculated after 24 hours; read-out: T2 LEPTNO in vivo 1 Day Protectant, control of fungal infection

SMILES	pest or weed control at 100 ppm [1]	inhibition at 25 ppm [2]	inhibition at 25 ppm (Ustilago maydis (USTIMA))	inhibition at 25 ppm [3]	pest or weed control at 100 ppm [4]	pest or weed control at 100 ppm [5]	inhibition at 25 ppm [6]	inhibition at 25 ppm [7]	pest or weed control at 100 ppm [8]	inhibition at 25 ppm [9]	pest or weed control at 100 ppm [10]
CCCC(=O)OCOc1c(OC)ccnc1C(=O)N[C@H]1COC(=O)[C@H](Cc2ccccc2)[C@@H](OCC(C)C)[C@H](C)OC1=O [Compound 63]	75 to 100%	> 80%	< 80%	> 80%	75 to 100%	< 25%	> 80%	< 80%	75 to 100%	< 80%	75 to 100%
COCCOC(=O)OCOc1c(OC)ccnc1C(=O)N[C@H]1COC(=O)[C@H](Cc2ccccc2)[C@@H](OCC(C)C)[C@H](C)OC1=O [Compound 57]	75 to 100%	> 80%	> 80%	> 80%	75 to 100%	< 25%	> 80%	< 80%	75 to 100%	< 80%	75 to 100%
CCCO[C@H]1[C@H](C)OC(=O)[C@@H](NC(=O)c2nccc(OC)c2OCOC(=O)CCOC)COC(=O)[C@@H]1Cc1ccccc1 [Compound 55]	75 to 100%	> 80%	< 80%	> 80%	75 to 100%	< 25%	> 80%	< 80%	75 to 100%	< 80%	75 to 100%
COc1ccnc(C(=O)N[C@H]2COC(=O)[C@H](Cc3ccccc3)[C@@H](OC(=O)C(C)C)[C@H](C)OC2=O)c1OCOC(C)(C)C [Compound 8]	< 25%	< 80%	> 80%	> 80%	75 to 100%	< 25%	< 80%	< 80%	75 to 100%	< 80%	75 to 100%
COc1ccnc(C(=O)N[C@H]2COC(=O)[C@H](Cc3ccccc3)[C@@H](OCSC)[C@H](C)OC2=O)c1OCOC(=O)C1CCCC1 [Compound 73]	25 to 74%	> 80%	> 80%	> 80%	75 to 100%	< 25%	> 80%	< 80%	75 to 100%	< 80%	75 to 100%
CCCO[C@H]1[C@H](C)OC(=O)[C@@H](NC(=O)c2nccc(OC)c2OCOC(=O)CCC)COC(=O)[C@@H]1Cc1ccccc1 [Compound 64]	75 to 100%	> 80%	< 80%	> 80%	75 to 100%	< 25%	> 80%	< 80%	75 to 100%	< 80%	75 to 100%
COCCOCC(=O)OCOc1c(OC)ccnc1C(=O)N[C@H]1COC(=O)[C@H](Cc2ccccc2)[C@@H](OCSC)[C@H](C)OC1=O [Compound 74]	25 to 74%	> 80%	> 80%	> 80%	75 to 100%	< 25%	> 80%	< 80%	25 to 74%	< 80%	75 to 100%
COCCOCC(=O)OCOc1c(OC)ccnc1C(=O)N[C@H]1COC(=O)[C@H](Cc2ccccc2)[C@@H](OC(=O)C(C)C)[C@H](C)OC1=O [Compound 40]	25 to 74%	> 80%	> 80%	> 80%	75 to 100%	< 25%	> 80%	> 80%	75 to 100%	< 80%	75 to 100%
COC(=O)CCC(=O)OCOc1c(OC)ccnc1C(=O)N[C@H]1COC(=O)[C@H](Cc2ccccc2)[C@@H](OC(=O)C(C)C)[C@H](C)OC1=O [Compound 32]	25 to 74%	> 80%	< 80%	> 80%	75 to 100%	< 25%	< 80%	< 80%	75 to 100%	< 80%	75 to 100%
CCCO[C@H]1[C@H](C)OC(=O)[C@@H](NC(=O)c2nccc(OC)c2OCOC(=O)COCC)COC(=O)[C@@H]1Cc1ccccc1 [Compound 60]	75 to 100%	> 80%	> 80%	> 80%	75 to 100%	< 25%	> 80%	< 80%	75 to 100%	> 80%	75 to 100%
COCC(=O)OCOc1c(OC)ccnc1C(=O)N[C@H]1COC(=O)[C@H](Cc2ccccc2)[C@@H](OCC(C)C)[C@H](C)OC1=O [Compound 58]	75 to 100%	> 80%	> 80%	> 80%	75 to 100%	< 25%	> 80%	< 80%	75 to 100%	> 80%	75 to 100%
CCOCC(=O)OCOc1c(OC)ccnc1C(=O)N[C@H]1COC(=O)[C@H](Cc2ccccc2)[C@@H](OCC(C)C)[C@H](C)OC1=O [Compound 59]	75 to 100%	> 80%	> 80%	> 80%	75 to 100%	< 25%	> 80%	< 80%	75 to 100%	> 80%	75 to 100%
CCC(=O)OCOc1c(OC)ccnc1C(=O)N[C@H]1COC(=O)[C@H](Cc2ccccc2)[C@@H](OC(=O)C(C)C)[C@H](C)OC1=O [Compound 21]	25 to 74%	> 80%	< 80%	> 80%	75 to 100%	< 25%	> 80%	< 80%	75 to 100%	< 80%	75 to 100%
COc1ccnc(C(=O)N[C@H]2COC(=O)[C@H](Cc3ccccc3)[C@@H](OC(=O)C(C)C)[C@H](C)OC2=O)c1OCOCCOC(C)=O [Compound 17]	< 25%	< 80%	< 80%	> 80%	75 to 100%	< 25%	> 80%	> 80%	75 to 100%	< 80%	75 to 100%
COc1ccnc(C(=O)N[C@H]2COC(=O)[C@H](Cc3ccccc3)[C@@H](OCC(C)C)[C@H](C)OC2=O)c1OCOC(=O)C1CC1 [Compound 56]	75 to 100%	> 80%	< 80%	> 80%	75 to 100%	< 25%	> 80%	< 80%	75 to 100%	< 80%	75 to 100%
COCC(C)OCOc1c(OC)ccnc1C(=O)N[C@H]1COC(=O)[C@H](Cc2ccccc2)[C@@H](OC(=O)C(C)C)[C@H](C)OC1=O (some centres unmarked) [Compound 12]	25 to 74%	> 80%	> 80%	> 80%	75 to 100%	< 25%	> 80%	> 80%	75 to 100%	< 80%	75 to 100%
